Laboratory results as given in EP4635966A1, “SYNTHETIC VARIANTS OF THE GANGLIOSIDE NGCGM3 AND USE THEREOF IN CANCER TREATMENT” (Centro de Inmunologia Molecular, priority 2022, dated 2024).

Experiments:
iNKT cells = test: In vivo iNKT cell activation: serum IFNγ by ELISA after i.p. injection; parameters: species or system C57BL/6 mice; details: 200 µg i.p.; blood 16 hours after administration; Figure 7
Protocol: C57BL/6 mice were injected intraperitoneally with 200 µg of natural NGcGM3 ganglioside, NGcGM3 d18:1-C24:1, NGcGM3 d18:1-C 18:0 and 2 µg of αGalCer or vehicle (5.6 % sucrose, 0.75 % L-histidine and 0.5 % Tween-20) and blood was drawn 16 hours after the administration. Serum IFNγ levels were assessed by ELISA as an indirect measure of iNKT cell activation (Mouse IFNy ELISA Ready-SET-Go!, eBioscience).

EL-4 thymoma cells [1] = test: EL-4 hepatic metastatic spread model (liver weight); assay type: in vivo, C57BL/6 mice
Protocol: Syngeneic C57BL/6 mice were inoculated intravenously through the tail vein with 2x10^5 EL-4 thymoma cells. Mice were randomized and distributed into groups of 7-9 animals. Experimental groups received intraperitoneal treatments with 200µg of synthetic and natural variants of NGcGM3 or vehicle (5.6% sucrose solution, 0.75% L-histidine and 0.5% Tween20) on days 1, 5 and 9. Animals were sacrificed 12-13 days after tumor inoculation, livers were removed and weighed to determine the level of hepatic metastatic spread. The liver weight of healthy animals of the same age and batch was used as a control.
Syngeneic C57BL/6 mice were inoculated intravenously through the tail vein with 2x10^5 EL-4 thymoma cells; mice were randomized and distributed into groups of 7-9 animals. Experimental groups received intraperitoneal treatments with 10-30 µg of nanoparticles of NGcGM3 d18:1-C24:1, NGcGM3 d18:1-C18:0 and natural NGcGM3 with OMPC of N. meningitidis on days 1, 5 and 9 or Tris/HCl solution (Placebo). Animals were sacrificed 12-13 days after tumor inoculation. To determine the level of liver metastatic spread, their livers were removed and weighed.
Syngeneic C57BL/6 mice were inoculated intravenously through the tail vein with 2x10^5 EL-4 thymoma cells; mice were randomized and distributed into groups of 7-9 animals. On the day following tumor inoculation, 6x10^5 bmDC, previously cultured for 16 hours with vehicle (DMSO 0.1%), NGcGM3 d18:1-C24:1 ganglioside (10 µg/ml) or NGcGM3 extracted from natural source (10 µg/ml) were administered in a single dose, intravenously. Cells were extensively washed with serum-free RPMI-1640 medium to remove excess of lipids before transfer. Animals were sacrificed 12-13 days after tumor inoculation, livers were collected and the level of hepatic metastatic spread was determined by weigh. Livers from healthy mice of the same age and batch were used as a reference. […] Clearly, the transfer of bmDC pulsed with NGcGM3 d18:1-C24:1, induce a significant reduction of EL-4 liver metastasis, compared to the placebo group, in which empty dendritic cells were transferred. […], the transfer of bmDC incubated with ganglioside extracted from a natural source was ineffective. (equal letters p>0.05, different letters p<0.05, ANOVA and Tukey tests). […]
To maintain the depletion of the populations of interest throughout the duration of the experiment, equal doses of depleting antibodies were administered on days 4 and 11 after tumor inoculation. Animals were sacrificed 12-13 days after tumor inoculation, livers were removed and the level of hepatic metastatic spread was determined by weigh. […]

EL-4 thymoma cells [2] = test: Survival of EL-4 tumor-bearing mice; assay type: in vivo, C57BL/6 mice; details: 200 µg i.p. on days 1, 5 and 9; p=0.0005 vs placebo
Protocol: Syngeneic C57BL/6 mice were inoculated intravenously through the tail vein with 2x10^5 EL-4 thymoma cells (ATCC TIB-39); mice were randomized and distributed into groups of 7-9 animals. Experimental groups received intraperitoneal treatments with 200 µg of ganglioside variants NGcGM3 d18:1-C24:1 and NGcGM3 from natural source or vehicle (5.6% sucrose solution, 0.75% L-histidine and 0.5% Tween20) on days 1, 5 and 9. The animals were monitored and sacrificed if they presented any sign or symptom that affected their ability to ingest food and water or compromised their general state of health, according to veterinary criteria.
Syngeneic C57BL/6 mice were inoculated intravenously through the tail vein with 2x10^5 EL-4 thymoma cells; mice were randomized and distributed into groups of 7-9 animals. On the day following tumor inoculation, 6x10^5 bmDC previously cultured for 16 hours with vehicle (DMSO 0.1%), NGcGM3 d18:1-C24:1 ganglioside (10 µg/ml) or the ganglioside extracted from a natural source (10 µg/ml) were administered in a single dose, intravenously. Cells were washed extensively with serum-free RPMI-1640 medium to remove excess of lipids before transfer. Mice were monitored for signs or symptoms that affected their ability to ingest food and water or compromised their general health status, according to veterinary criteria.

P3X63 myeloma cells = test: Subcutaneous P3X63 myeloma tumor growth (tumor volume); assay type: in vivo, BALB/c mice; details: day 5; for TV < 36 mm^3 (percentage distribution of tumor volume of the animals) / TV > 36 mm^3 (percentage distribution of tumor volume of the animals): Example 5, Table 1, i.p. on days 1, 5 and 9 (200 µg NGcGM3 d18:1-C24:1); for TV < 36 mm^3 (percentage distribution of tumor volume of the animals) / TV > 36 mm^3 (percentage distribution of tumor volume of the animals) / TV < 36 mm^3 (percentage distribution of tumor volume of animals) / TV > 36 mm^3 (percentage distribution of tumor volume of animals): 1x10^6 P3X63 s.c.; for growth of subcutaneous tumors: Example 5, p<0.001 for NGcGM3 d18:1-C24:1, p<0.05 for αGalCer vs placebo; for TV < 36 mm^3 (percentage distribution of tumor volume of animals) / TV > 36 mm^3 (percentage distribution of tumor volume of animals): Example 10, Table 2, treatment on days 1, 5 and 9; for antitumor effect (inhibition of tumor growth vs control group): Example 10, p=0.0031 NGcGM3 d18:1-C24:1, p=0.0004 GlycoVax 24:1
Protocol: 1x10^6 P3X63 cells were implanted subcutaneously into syngeneic BALB/c mice. Animals were randomized, divided into groups of 6-8 and received intraperitoneal treatments with 200 µg NGcGM3 d18:1-C24:1 ganglioside, αGalCer or vehicle (5.6% sucrose solution, 0.75% L-histidine and 0.5% Tween20 0.5%) on days 1, 5 and 9. Tumor diameters were measured with a caliper and tumor volume (TV) was calculated according to the formula: TV (mm^3) = π/6 × major diameter × (minor diameter)^2. […] The individual tumor volume values of the animals in each group and the mean and standard deviation of the mean in each case on day 5 of the experiment are shown. […] Table 1. Percentage distribution of tumor volume of the animals in each group.
1x10^6 P3X63 myeloma cells were implanted subcutaneously into syngeneic BALB/c mice. Animals were randomized, divided into groups of 6-8 and received treatments with vehicle solution (5.6% sucrose, 0.75% L-histidine and 0.5% Tween-20), αGalCer, NGcGM3 d18:1-C24:1 or nanoparticles of OMPC and NGcGM3 d18:1-C24:1 (GlycoVax 24:1) on days 1, 5 and 9.
Subcutaneous tumor diameters were measured every 2-3 days with a caliper and TV was calculated according to the formula: TV (mm^3) = π/6 × major diameter × (minor diameter)^2. […]

[3] = test system: FF13 mouse iNKT-cell hybridoma; test: In vitro iNKT cell activation: bmDC co-cultured with FF13 hybridoma, IL-2 by ELISA; assay type: cell-based; details: for activation of iNKT cell hybridoma (IL-2 secretion): Example 6
Protocol: The FF13 mouse iNKT-cell hybridoma previously described by Schumann J. (Schumann J. Eur J Immunol. 2007, 37:1431-41) was provided by Dr. Lucia Mori (University Hospital Basel, Switzerland) and was cultured in RPMI-1640 medium with GlutaMAX-I and 25 mM HEPES supplemented with 10 % heat-inactivated fetal bovine serum (FBS), 100 U/ml penicillin, 100 µg/ml streptomycin and 55 µM 2-mercaptoethanol.
Mature bone marrow precursor-derived dendritic cells (bmDC) were used as APCs for in vitro iNKT cell activation assays and in vivo adoptive transfer experiments. The bmDCs were obtained according to the previously described protocol of differentiation from bone marrow progenitors in the presence of granulocyte/macrophage colony stimulating factor (GM-CSF) (Inaba K. J ExpMed.1992, 176:1693-1702) with some modifications. Briefly, bone marrow progenitors were isolated from femurs and tibias of C57BL/6 mice and cultured in complete RPMI-1640 medium (RPMI-1640 with GlutaMAX-I, 10% FBS, 100 U/mL penicillin, 100 µg/mL streptomycin and 55 µM 2-mercaptoethanol) supplemented with 20 ng/mL GM-CSF (R&D Systems). The culture was fed with fresh medium on day 3 and maturation of bmDCs was induced with 1 µg/ml LPS. On day 7, cells were harvested and used for iNKT cell activation assays or adoptive transfer.
5x10^4 bmDC were grown in RPMI-1640 medium with 10% FBS in the presence of αGalCer at a concentration of 100 ng/ml and concentrations of 0.1, 1 and 10 µg/ml of natural NGcGM3 and the synthetic variants NGcGM3 d18:1-C24:1, NGcGM3 d18:1-C24:0, NGcGM3 d18:1-C18:0, NGcGM3 d18:1-C18:1 and NGcGM3 d18:1-C18:2 or vehicle (0.1 % DMSO) for 16 -24 hours. Then, 10^5 FF13 hybridoma cells were added and co-cultured with the bmDCs for 24 hours. The culture supernatants were collected and evaluated for IL-2 content by ELISA. […] Differences were observed between the NGcGM3 variants in terms of their antigenicity to iNKT cells based on the length and structure of the fatty acid in the ceramide.
5x10^4 bmDC were cultured in RPMI-1640 medium with 10% FBS in the presence of 10 µg/ml and 1 µg/ml of NGcGM3 d18:1-C24:1 ganglioside, GM3 d18:1-C24:1 or vehicle (0.1% DMSO) for 16-24 hours. Next, 10^5 FF13 hybridoma cells were added and co-cultured with the bmDCs for 24 hours. The culture supernatants were collected and IL-2 content quantified by ELISA. From Figure 8, the synthetic ganglioside variants NGcGM3 and GM3, with identical ceramide structure, have differences in their ability to stimulate iNKT cells.
5x10^4 bmDC were cultured in RPMI-1640 medium with 10% FBS in the presence of 100 ng/ml, 1 µg/ml or 10 µg/ml concentrations of nanoparticles, αGalCer or vehicle (0.1% DMSO) for 16 -24 hours. […] The culture supernatants were collected and IL-2 content quantified by ELISA. […]

Row | SMILES | serum IFNγ levels (in vivo activation of iNKT cells) (iNKT cells) | antimetastatic effect (liver weight, hepatic metastatic spread) (EL-4 thymoma cells [1]; 2x10^5 EL-4 i.v., 200 µg i.p. on days 1, 5 and 9, livers weighed 12-13 days after inoculation, Figure 2) | anti-metastatic effect (liver weight), NK and NKT cell populations not affected (EL-4 thymoma cells [1]; Example 18, 200 µg i.p. on days 1, 5 and 9 + PBS) | anti-metastatic effect (liver weight) after depletion of NK and NKT cells (EL-4 thymoma cells [1]; Example 18, 200 µg i.p. on days 1, 5 and 9 + anti-NK1.1 Mab, Figure 18a) | anti-metastatic effect (liver weight) after depletion of NK cells only (EL-4 thymoma cells [1]; Example 18, 200 µg i.p. on days 1, 5 and 9 + anti-asialoGM1 antibody, Figure 18b) | survival of EL-4 tumor-bearing animals (EL-4 thymoma cells [2]) | TV < 36 mm^3 (percentage distribution of tumor volume of the animals) (P3X63 myeloma cells) [%] | TV > 36 mm^3 (percentage distribution of tumor volume of the animals) (P3X63 myeloma cells) [%] | TV < 36 mm^3 (percentage distribution of tumor volume of the animals) (P3X63 myeloma cells; listed as NGcGM3 24:1) [%] | growth of subcutaneous tumors (P3X63 myeloma cells) | TV < 36 mm^3 (percentage distribution of tumor volume of animals) (P3X63 myeloma cells) [%] | TV > 36 mm^3 (percentage distribution of tumor volume of animals) (P3X63 myeloma cells) [%] | TV < 36 mm^3 (percentage distribution of tumor volume of animals) (P3X63 myeloma cells; listed as NGcGM3 24:1) [%] | antitumor effect (inhibition of tumor growth vs control group) (P3X63 myeloma cells) | activation of iNKT cell hybridoma (IL-2 secretion) ([3]; 100 ng/ml, same concentration as αGalCer) | activation of iNKT cell hybridoma (IL-2 secretion) ([3]; 0.1, 1 and 10 µg/ml on bmDC 16-24 h, co-culture 24 h, Figure 6) | activation of iNKT cell hybridoma (IL-2 secretion) ([3]; highest concentration tested, 10 µg/ml, αGalCer reference at 100 ng/ml) | iNKT cell activation (IL-2 secretion) compared with GM3 d18:1-C24:1 ([3]; Example 8, 10 µg/ml and 1 µg/ml, Figure 8)
1 | CCCCCCCCCCCCCC=CC(O)C(COC1OC(CO)C(OC2OC(CO)C(O)C(OC3(C(=O)O)CC(O)C(NC(=O)CO)C(C(O)C(O)CO)O3)C2O)C(O)C1O)NC(=O)CCCCCCCCCCCCCCCCC (stereo not shown) [NGcGM3 d18:1-C18:0, reference compound] | inactive |  |  |  |  |  |  |  |  |  |  |  |  |  |  |  |  | 
2 | CCCCCCCCC=CCCCCCCCCCCCCCC(=O)NC(COC1OC(CO)C(OC2OC(CO)C(O)C(OC3(C(=O)O)CC(O)C(NC(=O)CO)C(C(O)C(O)CO)O3)C2O)C(O)C1O)C(O)C=CCCCCCCCCCCCCC [NGcGM3 d18:1-C24:1, O-[3,5-didesoxy-5-hydroxyacetamido-D-glycero-α-D-galacto-2-nonupyranosyl-(2→3)-O-(β-D-galactopyranosyl)-(1→4)-β-D-glucopyranosyl-(1→1)-(2R,3S,4E)-2-tetracos-15-enamido-4-octadecene-1,3-diol] | higher than in the rest of the experimental groups | statistically significant antimetastatic effect | is present | abolishes the aforementioned anti-tumor effect | the antitumor effect is maintained | significantly increased the survival | 50 | 50 | 50 | significantly inhibited the growth of subcutaneous tumors | 50 | 50 | 50 | significant inhibition of tumor growth | able to activate iNKT cells | potent activation of FF13 hybridoma cells | surpass the effect of αGalCer | more potent effect on iNKT cell activation than the GM3 variant
3 | CCCCCCCCCCCCCCCCCCCCCCCCCC(=O)N[C@@H](CO[C@H]1O[C@H](CO)[C@H](O)[C@H](O)[C@H]1O)[C@H](O)[C@H](O)CCCCCCCCCCCCCC [αGalCer, α-galactosylceramide, reference compound] |  |  |  |  |  |  | 25 | 75 |  | significantly inhibited the growth of subcutaneous tumors | 25 | 75 |  | did not show a statistically significant antitumor effect |  |  |  | 
